This is an account of results in patent publication US9815842B2, “Pyrazolo pyrimidine derivatives and their use as MALT1 inhibitors” (Novartis AG, priority 2014, dated 2017).

For one assay, the system named is Human IL2 promoter. Kind of assay: Human IL2 promoter reporter gene assay (RGA) in Jurkat cells. It is filed as cell-based. The following applies: Jurkat clone K22 290_H23, anti-CD28 mAb + PMA stimulation 5.5 h. In short, it runs like this: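 Transfected Jurkat clone K22 290_H23 cells were pre-incubated with compounds 30 min at 37 °C, then stimulated 5.5 h with anti-CD28 mAb (15E8, 3 μg/ml) plus PMA (1 μg/ml). IL2-promoter reporter activity was read as BriteLitePlus bioluminescence.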

The target of assay [1] is T1, cIAP2-MALT1 fusion protein (Homo sapiens, UniProt Q9UDY8). The following applies: read-out: NFkappaB reporter gene assay IC50; HEK293 stably expressing cIAP2-MALT1, luciferase, 24 h compound incubation. A general note: In a reporter assay the amount or activity of a reporter protein is the signal.
T1 sequence (Q9UDY8 2-824 limits assumed): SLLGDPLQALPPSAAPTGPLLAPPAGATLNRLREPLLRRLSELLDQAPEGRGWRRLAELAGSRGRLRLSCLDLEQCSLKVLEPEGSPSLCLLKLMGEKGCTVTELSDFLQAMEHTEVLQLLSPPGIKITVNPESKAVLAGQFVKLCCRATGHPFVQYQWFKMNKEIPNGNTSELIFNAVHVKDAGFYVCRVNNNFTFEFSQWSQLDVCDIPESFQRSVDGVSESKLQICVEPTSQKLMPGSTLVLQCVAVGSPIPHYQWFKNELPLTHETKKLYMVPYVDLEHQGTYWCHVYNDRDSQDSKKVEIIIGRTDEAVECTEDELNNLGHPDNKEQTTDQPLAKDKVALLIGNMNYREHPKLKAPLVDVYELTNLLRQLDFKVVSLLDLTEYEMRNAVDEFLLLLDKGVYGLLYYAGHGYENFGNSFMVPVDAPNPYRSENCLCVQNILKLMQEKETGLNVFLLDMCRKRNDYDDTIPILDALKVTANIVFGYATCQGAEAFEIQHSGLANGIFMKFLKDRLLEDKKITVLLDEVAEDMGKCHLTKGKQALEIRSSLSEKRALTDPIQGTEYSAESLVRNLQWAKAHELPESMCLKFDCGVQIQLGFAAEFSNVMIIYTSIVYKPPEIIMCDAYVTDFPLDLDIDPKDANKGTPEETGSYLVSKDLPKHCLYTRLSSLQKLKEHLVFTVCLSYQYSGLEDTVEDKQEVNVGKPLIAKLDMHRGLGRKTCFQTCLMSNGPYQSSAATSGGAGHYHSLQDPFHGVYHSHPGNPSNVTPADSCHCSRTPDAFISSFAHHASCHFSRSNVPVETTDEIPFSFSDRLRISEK
Experimental: (§1) For the measurement of compound inhibition, 0.25 μl of test compound were mixed with 12.5 μl of enzyme in wells of the 384-well plates, and incubated for 60 minutes at room temperature (22° C.). After that, 12.5 μl of substrate was added, and the enzymatic reaction was allowed to proceed for 60 minutes at room temperature (22° C.). […] The DMSO content was between 0.9 and 1% (v/v). […] The IC50 value was calculated from the plot of percentage inhibition versus inhibitor concentration using non-linear regression analysis software (Origin, OriginLab Corporation, USA). The data were fitted using a 4 Parameter Logistic Model, characterized by the following equation: y=A2+(A1−A2)/(1+(x/IC50)^p) where y is the %-inhibition at the inhibitor concentration, x. A1 is the lowest inhibition value, and A2 the maximum inhibition value.
Assay [2] deals with C-domain of MALT1 (amino acids 329-824) (Homo sapiens (Human), UniProt Q9UDY8). Kind of assay: MALT1 biochemical assay (fluorescence lifetime enzyme activity assay). The following applies: 60 min pre-incubation, 2.5 nM enzyme, 1 μM peptide substrate.
Chain of C-domain of MALT1 (amino acids 329-824) (Q9UDY8 329-824): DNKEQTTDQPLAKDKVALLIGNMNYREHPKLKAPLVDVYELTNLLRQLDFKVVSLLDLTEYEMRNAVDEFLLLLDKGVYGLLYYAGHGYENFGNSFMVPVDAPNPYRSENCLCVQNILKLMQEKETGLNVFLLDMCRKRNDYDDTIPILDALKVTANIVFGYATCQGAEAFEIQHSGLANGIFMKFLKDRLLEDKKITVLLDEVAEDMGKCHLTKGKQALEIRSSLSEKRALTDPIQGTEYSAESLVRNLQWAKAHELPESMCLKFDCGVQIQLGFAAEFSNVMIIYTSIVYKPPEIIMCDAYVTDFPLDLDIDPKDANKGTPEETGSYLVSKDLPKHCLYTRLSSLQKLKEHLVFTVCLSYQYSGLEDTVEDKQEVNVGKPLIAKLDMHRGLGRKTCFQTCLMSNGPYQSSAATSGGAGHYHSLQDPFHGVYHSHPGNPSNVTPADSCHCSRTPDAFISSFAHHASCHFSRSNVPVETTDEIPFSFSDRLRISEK
Assay [3] deals with T1, cIAP2-MALT1 fusion protein. As to the kind of experiment: cell-based.
Experimental: as §1

Molecules are shown by their SMILES. Like-named read-outs stand apart in the source and are kept apart here.

As for `CO[C@@H](C)c1c(NC(=O)Nc2ccnc(C(F)(F)F)c2)cnc2cc(C)nn12` [Example 6, (S)-1-(7-(1-methoxyethyl)-2-methylpyrazolo[1,5-a]pyrimidin-6-yl)-3-(2-(trifluoromethyl)pyridin-4-yl)urea], the IC50 in the assay with Human IL2 promoter came to 52 nM; in assay [1] it was 132 nM. For the molecule `COc1ncc(NC(=O)Nc2cnc3cc(Cl)nn3c2[C@H](C)OC)cc1Cl` [Example 9, (S)-1-(5-chloro-6-methoxypyridin-3-yl)-3-(2-chloro-7-(1-methoxyethyl)pyrazolo[1,5-a]pyrimidin-6-yl)urea], the values for the IC50 (in the assay on Human IL2 promoter; in assay [1]) were 109 nM and 44 nM, respectively. For `CC1(c2c(NC(=O)Nc3cnc(-n4nccn4)c(Cl)c3)cnc3cc(Cl)nn23)CC1` [Example 16, 1-(5-chloro-6-(2H-1,2,3-triazol-2-yl)pyridin-3-yl)-3-(2-chloro-7-(1-methylcyclopropyl)pyrazolo[1,5-a]pyrimidin-6-yl)urea], in assay [1], the IC50 was determined as 35 nM.

In the case of `CC(C)c1c(NC(=O)Nc2cc(Cl)c(-n3nccn3)nc2OC2CCN(C)C2)cnc2cc(Cl)nn12` (centres unmarked) [Example 33, 1-(5-chloro-2-((1-methylpyrrolidin-3-yl)oxy)-6-(2H-1,2,3-triazol-2-yl)pyridin-3-yl)-3-(2-chloro-7-isopropylpyrazolo[1,5-a]pyrimidin-6-yl)urea], the IC50 in assay [2] was 30 nM; in assay [1], 408 nM. Consider `CCC(C)c1c(NC(=O)Nc2cnc(-n3nccn3)c(Cl)c2)cnc2cc(Cl)nn12` (centres unmarked) [Example 35, 1-(7-(sec-butyl)-2-chloropyrazolo[1,5-a]pyrimidin-6-yl)-3-(5-chloro-6-(2H-1,2,3-triazol-2-yl)pyridin-3-yl)urea], for which the IC50 was 59 nM with Human IL2 promoter and 48 nM in assay [1].

Consider `COCCO[C@@H](C)c1c(NC(=O)Nc2ccnc(C(F)(F)F)c2)cnc2cc(Cl)nn12` [Example 41, (S)-1-(2-chloro-7-(1-(2-methoxyethoxy)ethyl)pyrazolo[1,5-a]pyrimidin-6-yl)-3-(2-(trifluoromethyl)pyridin-4-yl)urea], for which the IC50 in assay [1] is 356 nM. `O=C(Nc1cnc(-n2nccn2)c(Cl)c1)Nc1cnc2cc(Cl)nn2c1C1COCCO1` (centres unmarked) [Example 43, 1-(5-chloro-6-(2H-1,2,3-triazol-2-yl)pyridin-3-yl)-3-(2-chloro-7-(1,4-dioxan-2-yl)pyrazolo[1,5-a]pyrimidin-6-yl)urea]: the IC50 in assay [1] turned out to be 159 nM. On the same count and under the same terms, the same measure for `COCC1(c2c(NC(=O)Nc3ccnc(C(F)(F)F)c3)cnc3cc(Cl)nn23)CCC1` [Example 51, 1-(2-chloro-7-(1-(methoxymethyl)cyclobutyl)pyrazolo[1,5-a]pyrimidin-6-yl)-3-(2-(trifluoromethyl)pyridin-4-yl)urea]: 195 nM. Take `O=C(Nc1cnc(-n2nccn2)c(C(F)(F)F)c1)Nc1cnc2cc(Cl)nn2c1C1CCCO1` (centres unmarked) [Example 54, 1-(6-(2H-1,2,3-triazol-2-yl)-5-(trifluoromethyl)pyridin-3-yl)-3-(2-chloro-7-(tetrahydrofuran-2-yl)pyrazolo[1,5-a]pyrimidin-6-yl)urea]: the IC50 came out at 94 nM with Human IL2 promoter and 117 nM in assay [1].

Regarding `O=C(Nc1cnc(-n2nccn2)c(C(F)(F)F)c1)Nc1cnc2cc(Cl)nn2c1-c1ccco1` [Example 63, 1-(6-(2H-1,2,3-triazol-2-yl)-5-(trifluoromethyl)pyridin-3-yl)-3-(2-chloro-7-(furan-2-yl)pyrazolo[1,5-a]pyrimidin-6-yl)urea], in assay [1], the IC50 amounted to 354 nM. For the molecule `O=C(Nc1cnc(-n2nccn2)c(Cl)c1)Nc1cnc2cc(Cl)nn2c1C1CC12CCOC2` (centres unmarked) [Example 68, 1-(5-chloro-6-(2H-1,2,3-triazol-2-yl)pyridin-3-yl)-3-(2-chloro-7-(5-oxaspiro[2.4]heptan-1-yl)pyrazolo[1,5-a]pyrimidin-6-yl)urea], the concentration for half-maximal inhibition (IC50) in assay [1] amounted to 586 nM. For `COc1ncc(NC(=O)Nc2cnc3cc(Cl)nn3c2-c2ccncc2)cc1Cl` [Example 69, 1-(5-chloro-6-methoxypyridin-3-yl)-3-(2-chloro-7-(pyridin-4-yl)pyrazolo[1,5-a]pyrimidin-6-yl)urea], the IC50 in assay [1] was determined as 678 nM. Regarding `CN1CCOCC1Cc1c(NC(=O)Nc2cnc(-n3nccn3)c(Cl)c2)cnc2cc(Cl)nn12` (centres unmarked) [Example 83, 1-(5-chloro-6-(2h-1,2,3-triazol-2-yl)pyridin-3-yl)-3-(2-chloro-7-((4-methylmorpholin-3-yl)methyl)pyrazolo[1,5-a]pyrimidin-6-yl)urea], the IC50 in assay [1] stood at 829 nM. Turning to `COc1ncc(NC(=O)Nc2cnc3cc(Cl)nn3c2C2CCC(C)O2)cc1Cl` (centres unmarked) [Example 87, 1-(5-chloro-6-methoxypyridin-3-yl)-3-(2-chloro-7-(5-methyltetrahydrofuran-2-yl)pyrazolo[1,5-a]pyrimidin-6-yl)urea], in assay [1], the IC50 was 417 nM. With `CN1CCOC(c2c(NC(=O)Nc3cnc(-n4nccn4)c(Cl)c3)cnc3cc(Cl)nn23)C1` (centres unmarked) [Example 116, 1-(5-chloro-6-(2H-1,2,3-triazol-2-yl)pyridin-3-yl)-3-(2-chloro-7-(4-methylmorpholin-2-yl)pyrazolo[1,5-a]pyrimidin-6-yl)urea], in assay [1], the IC50 was determined as 687 nM. On the same count and under the same terms, the same measure for `C[C@H](c1c(NC(=O)Nc2cnc(-n3nccn3)c(Cl)c2)cnc2cc(Cl)nn12)N(C)C` [Example 121, (R)-1-(5-chloro-6-(2H-1,2,3-triazol-2-yl)pyridin-3-yl)-3-(2-chloro-7-(1-(dimethylamino)ethyl)pyrazolo[1,5-a]pyrimidin-6-yl)urea]: 218 nM. Take `C[C@@H](c1c(NC(=O)Nc2cnc(-n3nccn3)c(Cl)c2)cnc2cc(Cl)nn12)N(C)C` [Example 122, (S)-1-(5-chloro-6-(2H-1,2,3-triazol-2-yl)pyridin-3-yl)-3-(2-chloro-7-(1-(dimethylamino)ethyl)pyrazolo[1,5-a]pyrimidin-6-yl)urea]: the IC50 in the assay on Human IL2 promoter is 17 nM; in assay [1], 43 nM.

As to `COC[C@H](OC)c1c(NC(=O)Nc2cnc(-n3nccn3)c(Cl)c2)cnc2cc(Cl)nn12` [Example 126, (R)-1-(5-chloro-6-(2H-1,2,3-triazol-2-yl)pyridin-3-yl)-3-(2-chloro-7-(1,2-dimethoxyethyl)pyrazolo[1,5-a]pyrimidin-6-yl)urea], the values for the IC50 (with Human IL2 promoter; in assay [3]; in assay [2]) were 58 nM, 119 nM and 5 nM, respectively.

In general, IC50 refers to the concentration that inhibits the measured activity by half.
